Like-named read-outs stand apart in the source and are kept apart here.
Target: T1, BRM (Homo sapiens, UniProt P51531)
T1 construct: In-Cell Western Screen of BRM Degradation in SW1573 Cells; endogenous in cells; host or cells: SW1573
Assay: In-cell Western screen of BRM degradation in SW1573 cells (Dmax and DC50)
Assay type: cell-based
Outline: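 BRM levels were read by LI-COR in-cell Western after two-channel (800/680 nm) immunostaining of fixed, Triton-permeabilised SW1573 cells.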

[1] = BRM degradation, SW1573 cells, read-out: DC50
[2] = BRM degradation, SW1573 cells, tested at the top concentration of between 0.3 and 10 μM, read-out: Dmax (%) (% degraded)
[3] = degradation of BRM, read-out: BRM DC50
[4] = BRM degradation, SW1573 cells, when tested at the top concentration of between 0.3 and 10 μM, read-out: Dmax (%) (% degraded)
[5] = SW1573, % degraded, when tested at the top concentration of between 0.3 and 10 μM, read-out: BRM Dmax (%)

T1 sequence (P51531 whole entry): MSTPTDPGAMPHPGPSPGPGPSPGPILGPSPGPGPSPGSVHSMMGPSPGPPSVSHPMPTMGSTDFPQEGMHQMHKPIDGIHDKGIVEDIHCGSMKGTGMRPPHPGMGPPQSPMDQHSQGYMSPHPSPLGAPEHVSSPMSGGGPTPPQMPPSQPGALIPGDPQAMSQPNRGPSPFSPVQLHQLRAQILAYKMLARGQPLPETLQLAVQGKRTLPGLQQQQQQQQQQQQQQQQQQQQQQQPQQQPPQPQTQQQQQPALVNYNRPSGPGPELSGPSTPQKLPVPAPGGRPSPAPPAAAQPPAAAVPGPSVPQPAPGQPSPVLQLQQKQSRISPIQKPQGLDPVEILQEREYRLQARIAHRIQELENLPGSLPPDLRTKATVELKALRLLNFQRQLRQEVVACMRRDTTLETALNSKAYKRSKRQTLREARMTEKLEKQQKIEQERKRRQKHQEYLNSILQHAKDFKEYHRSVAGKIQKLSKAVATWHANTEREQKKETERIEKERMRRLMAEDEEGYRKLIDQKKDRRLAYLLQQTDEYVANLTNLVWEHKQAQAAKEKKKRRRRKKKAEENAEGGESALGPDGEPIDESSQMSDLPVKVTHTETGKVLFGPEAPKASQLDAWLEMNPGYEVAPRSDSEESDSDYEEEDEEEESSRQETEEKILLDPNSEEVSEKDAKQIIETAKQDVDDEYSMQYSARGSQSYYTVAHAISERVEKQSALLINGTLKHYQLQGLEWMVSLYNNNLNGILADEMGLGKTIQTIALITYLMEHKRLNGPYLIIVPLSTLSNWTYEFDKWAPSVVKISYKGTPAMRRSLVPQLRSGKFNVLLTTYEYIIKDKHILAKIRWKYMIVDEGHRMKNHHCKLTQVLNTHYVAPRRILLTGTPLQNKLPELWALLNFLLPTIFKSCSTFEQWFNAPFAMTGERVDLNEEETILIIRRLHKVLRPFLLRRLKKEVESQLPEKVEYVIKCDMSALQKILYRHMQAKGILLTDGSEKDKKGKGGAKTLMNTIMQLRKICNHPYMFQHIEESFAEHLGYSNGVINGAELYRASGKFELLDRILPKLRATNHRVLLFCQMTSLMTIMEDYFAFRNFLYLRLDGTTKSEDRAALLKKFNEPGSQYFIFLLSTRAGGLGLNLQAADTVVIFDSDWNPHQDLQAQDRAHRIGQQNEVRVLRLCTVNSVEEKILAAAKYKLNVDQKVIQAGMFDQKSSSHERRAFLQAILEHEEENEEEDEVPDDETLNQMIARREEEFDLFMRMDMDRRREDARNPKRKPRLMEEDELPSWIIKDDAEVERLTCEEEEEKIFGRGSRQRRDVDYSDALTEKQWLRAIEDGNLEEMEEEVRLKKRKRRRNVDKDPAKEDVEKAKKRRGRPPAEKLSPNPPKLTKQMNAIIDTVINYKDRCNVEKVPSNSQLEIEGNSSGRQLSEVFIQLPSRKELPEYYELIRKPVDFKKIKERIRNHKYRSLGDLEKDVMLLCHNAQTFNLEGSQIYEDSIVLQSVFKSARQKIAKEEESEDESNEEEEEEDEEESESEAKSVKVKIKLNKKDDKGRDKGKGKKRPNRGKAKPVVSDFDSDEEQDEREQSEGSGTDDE

Cc1ncsc1-c1ccc(CNC(=O)[C@@H]2C[C@@H](O)CN2C(=O)[C@H](c2cc(OCC#Cc3ccc(O[C@H]4C[C@H](Oc5cc(N6C7CCC6CN(c6cc(-c8ccccc8O)nnc6N)C7)ccn5)C4)cn3)no2)C(C)C)cc1 [compound 220, (2S,4R)-1-((2S)-2-(3-((3-(5-((1r,3S)-3-((4-(3-(3-amino-6-(2-hydroxyphenyl)pyridazin-4-yl)-3,8-diazabicyclo[3.2.1]octan-8-yl)pyridin-2-yl)oxy)cyclobutoxy)pyridin-2-yl)prop-2-yn-1-yl)oxy)isoxazol-5-yl)-3-methylbutanoyl)-4-hydroxy-N-(4-(4-methylthiazol-5-yl)benzyl)pyrrolidine-2-carboxamide]
DC50 [1]: 10 to 30 nM | Dmax [2]: > 75%

Cc1ncsc1-c1ccc([C@H](C)NC(=O)[C@@H]2C[C@@H](O)CN2C(=O)[C@H](c2cc(N3CCN(CC4CCN(C[C@H]5C[C@H](Oc6cc(N7C8CCC7CN(c7cc(-c9ccccc9O)nnc7N)C8)ccn6)C5)CC4)CC3)no2)C(C)C)cn1 [compound 426, (2S,4R)-1-((2S)-2-(3-(4-((1-(((11,3r)-3-((4-(3-(3-amino-6-(2-hydroxyphenyl)pyridazin-4-yl)-3,8-diazabicyclo[3.2.1]octan-8-yl)pyridin-2-yl)oxy)cyclobutyl)methyl)piperidin-4-yl)methyl)piperazin-1-yl)isoxazol-5-yl)-3-methylbutanoyl)-4-hydroxy-N-((S)-1-(6-(4-methylthiazol-5-yl)pyridin-3-yl)ethyl)pyrrolidine-2-carboxamide]
DC50 [3]: > 30 nM

Cc1ncsc1-c1ccc(CNC(=O)[C@@H]2C[C@@H](O)CN2C(=O)[C@H](c2cc(CCCOCCOCCOCCn3cc(-c4cc(-c5ccccc5O)nnc4N)cn3)no2)C(C)C)cc1 [compound 23, (2S,4R)-1-[(2S)-2-[3-(3-[2-[2-(2-[4-[3-amino-6-(2-hydroxyphenyl)pyridazin-4-yl]-1H-pyrazol-1-yl]ethoxy)ethoxy]ethoxy]propyl)-1,2-oxazol-5-yl]-3-methylbutanoyl]-4-hydroxy-N-[[4-(4-methyl-1,3-thiazol-5-yl)phenyl]methyl]pyrrolidine-2-carboxamide]
DC50 [1]: > 30 nM | Dmax [4]: > 75%

Cc1ncsc1-c1ccc([C@H](C)NC(=O)[C@@H]2C[C@@H](O)CN2C(=O)[C@@H](c2cc(N3CCC(O[C@H]4C[C@H](Oc5cc(N6C7CCC6CN(c6cc(-c8ccccc8O)nnc6N)C7)ccn5)C4)CC3)no2)C(C)C)cc1 [compound 404, (2S,4R)-1-((2R)-2-(3-(4-((1r,3R)-3-((4-(3-(3-amino-6-(2-hydroxyphenyl)pyridazin-4-yl)-3,8-diazabicyclo[3.2.1]octan-8-yl)pyridin-2-yl)oxy)cyclobutoxy)piperidin-1-yl)isoxazol-5-yl)-3-methylbutanoyl)-4-hydroxy-N-((S)-1-(4-(4-methylthiazol-5-yl)phenyl)ethyl)pyrrolidine-2-carboxamide]
Dmax [5]: > 75% | DC50 [3]: < 2.5 nM

COc1cc(-c2scnc2C)ccc1[C@H](C)NC(=O)[C@@H]1C[C@@H](O)CN1C(=O)[C@H](c1cc(OCCN2CCC(O[C@H]3C[C@H](Oc4cc(N5C6CCC5CN(c5cc(-c7ccccc7O)nnc5N)C6)ccn4)C3)CC2)no1)C(C)C [compound 201, (2S,4R)-1-((2S)-2-(3-(2-(4-((1r,3S)-3-((4-(3-(3-amino-6-(2-hydroxyphenyl)pyridazin-4-yl)-3,8-diazabicyclo[3.2.1]octan-8-yl)pyridin-2-yl)oxy)cyclobutoxy)piperidin-1-yl)ethoxy)isoxazol-5-yl)-3-methylbutanoyl)-4-hydroxy-N-((S)-1-(2-methoxy-4-(4-methylthiazol-5-yl)phenyl)ethyl)pyrrolidine-2-carboxamide]
DC50 [1]: 10 to 30 nM | Dmax [2]: > 75%

Cc1ncsc1-c1ccc([C@H](C)NC(=O)[C@@H]2C[C@@H](O)CN2C(=O)[C@H](c2cc(OCCC3CCN(C(=O)[C@H]4C[C@H](CN5CCC([C@@H](C)n6cc(-c7cc(-c8ccccc8O)nnc7N)cn6)CC5)C4)CC3)no2)C(C)C)cc1 [compound 455, (2S,4R)-1-((S)-2-(3-(2-(1-((1R,3S)-3-((4-((R)-1-(4-(3-amino-6-(2-hydroxyphenyl)pyridazin-4-yl)-1H-pyrazol-1-yl)ethyl)piperidin-1-yl)methyl)cyclobutane-1-carbonyl)piperidin-4-yl)ethoxy)isoxazol-5-yl)-3-methylbutanoyl)-4-hydroxy-N-((S)-1-(4-(4-methylthiazol-5-yl)phenyl)ethyl)pyrrolidine-2-carboxamide]
Dmax [5]: > 75% | DC50 (target protein degradation, read-out: BRM DC50): < 2.5 nM

Cc1ncsc1-c1ccc(CNC(=O)[C@@H]2C[C@@H](O)CN2C(=O)[C@H](c2cc(OCCN3CCN(CCOc4cc(N5C6CCC5CN(c5cc(-c7ccccc7O)nnc5N)C6)ccn4)CC3)no2)C(C)C)cc1 [compound 41, (2S,4R)-1-[(2S)-2-[3-[2-(4-[2-[(4-[3-[3-amino-6-(2-hydroxyphenyl)pyridazin-4-yl]-3,8-diazabicyclo[3.2.1]octan-8-yl]pyridin-2-yl)oxy]ethyl]piperazin-1-yl)ethoxy]-1,2-oxazol-5-yl]-3-methylbutanoyl]-4-hydroxy-N-[[4-(4-methyl-1,3-thiazol-5-yl)phenyl]methyl]pyrrolidine-2-carboxamide]
DC50 [1]: 10 to 30 nM | Dmax [4]: > 75%

Cc1ncsc1-c1ccc([C@H](C)NC(=O)[C@@H]2C[C@@H](O)CN2C(=O)[C@@H](c2cc(OCC[C@@H]3CCN(C[C@H]4C[C@H](Oc5cc(N6C7CCC6CN(c6cc(-c8ccccc8O)nnc6N)C7)ccn5)C4)[C@H](C)C3)no2)C(C)C)cc1 (racemic) [compound 580, (2S,4R)-1-((2R)-2-(3-(2-((2R,4R)-1-(((1r,3R)-3-((4-(3-(3-amino-6-(2-hydroxyphenyl)pyridazin-4-yl)-3,8-diazabicyclo[3.2.1]octan-8-yl)pyridin-2-yl)oxy)cyclobutyl)methyl)-2-methylpiperidin-4-yl)ethoxy)isoxazol-5-yl)-3-methylbutanoyl)-4-hydroxy-N-((S)-1-(4-(4-methylthiazol-5-yl)phenyl)ethyl)pyrrolidine-2-carboxamide]
Dmax (BRM degradation, SW1573 cells, Table 2D, read-out: **Dmax (%) (% degraded)): > 75% | DC50 (BRM degradation, SW1573 cells, Table 2D, read-out: *DC50): < 2.5 nM

Cc1ncsc1-c1ccc([C@H](COCC(C)C)NC(=O)[C@@H]2C[C@@H](O)CN2C(=O)[C@H](c2cc(OCCN3CCN(CCOc4cc(N5C6CCC5CN(c5cc(-c7ccccc7O)nnc5N)C6)ccn4)CC3)no2)C(C)C)cc1 [compound 291, (2S,4R)-1-((2S)-2-(3-(2-(4-(2-((4-(3-(3-amino-6-(2-hydroxyphenyl)pyridazin-4-yl)-3,8-diazabicyclo[3.2.1]octan-8-yl)pyridin-2-yl)oxy)ethyl)piperazin-1-yl)ethoxy)isoxazol-5-yl)-3-methylbutanoyl)-4-hydroxy-N-((R)-2-isobutoxy-1-(4-(4-methylthiazol-5-yl)phenyl)ethyl)pyrrolidine-2-carboxamide]
DC50 [1]: > 30 nM

Cc1ncsc1-c1ccc([C@H](C)NC(=O)[C@@H]2C[C@@H](O)CN2C(=O)[C@@H](c2cc(OCCC3CCN(CCOc4cc(N5C6CCC5CN(c5cc(-c7ccccc7O)nnc5N)C6)ccn4)CC3)no2)C(C)C)cc1 [compound 511, (2S,4R)-1-((2R)-2-(3-(2-(1-(2-((4-(3-(3-amino-6-(2-hydroxyphenyl)pyridazin-4-yl)-3,8-diazabicyclo[3.2.1]octan-8-yl)pyridin-2-yl)oxy)ethyl)piperidin-4-yl)ethoxy)isoxazol-5-yl)-3-methylbutanoyl)-4-hydroxy-N-((S)-1-(4-(4-methylthiazol-5-yl)phenyl)ethyl)pyrrolidine-2-carboxamide]
DC50 (BRM degradation, read-out: BRM DC50): > 30 nM

Cc1ncsc1-c1ccc([C@H](C)NC(=O)[C@@H]2C[C@@H](O)CN2C(=O)[C@H](c2cc(N3CCC4(CC3)CC(CN3CCC(O[C@H]5C[C@H](Oc6cc(N7C8CCC7CN(c7cc(-c9ccccc9O)nnc7N)C8)ccn6)C5)CC3)C4)no2)C(C)C)cc1 [compound 649, (2S,4R)-1-((2S)-2-(3-(2-((4-((1r,3r)-3-((4-(3-(3-amino-6-(2-hydroxyphenyl)pyridazin-4-yl)-3,8-diazabicyclo[3.2.1]octan-8-yl)pyridin-2-yl)oxy)cyclobutoxy)piperidin-1-yl)methyl)-7-azaspiro[3.5]nonan-7-yl)isoxazol-5-yl)-3-methylbutanoyl)-4-hydroxy-N-((S)-1-(4-(4-methylthiazol-5-yl)phenyl)ethyl)pyrrolidine-2-carboxamide]
DC50 [1]: > 30 nM

CC(C)[C@@H](C(=O)N1C[C@H](O)C[C@H]1C(=O)N[C@@H](C)c1ccc(-c2ccnn2C)cc1)c1cc(OCCN2CCN(CCOc3cc(N4C5CCC4CN(c4cc(-c6ccccc6O)nnc4N)C5)ccn3)CC2)no1 [compound 264, (2S,4R)-1-((2R)-2-(3-(2-(4-(2-((4-(3-(3-amino-6-(2-hydroxyphenyl)pyridazin-4-yl)-3,8-diazabicyclo[3.2.1]octan-8-yl)pyridin-2-yl)oxy)ethyl)piperazin-1-yl)ethoxy)isoxazol-5-yl)-3-methylbutanoyl)-4-hydroxy-N-((S)-1-(4-(1-methyl-1H-pyrazol-5-yl)phenyl)ethyl)pyrrolidine-2-carboxamide]
DC50 [1]: < 2.5 nM | Dmax [2]: > 75%

Cc1ncsc1-c1ccc([C@H](C)NC(=O)[C@@H]2C[C@@H](O)CN2C(=O)[C@@H](c2cc(OCCOCCOCCCCN3CC4(CCN(c5cc(-c6ccccc6O)nnc5N)CC4)C3)no2)C(C)C)cc1 [compound 72, (2S,4R)-1-((R)-2-(3-(2-(2-(4-(7-(3-amino-6-(2-hydroxyphenyl)pyridazin-4-yl)-2,7-diazaspiro[3.5]nonan-2-yl)butoxy)ethoxy)ethoxy)isoxazol-5-yl)-3-methylbutanoyl)-4-hydroxy-N-((S)-1-(4-(4-methylthiazol-5-yl)phenyl)ethyl)pyrrolidine-2-carboxamide]
DC50 [1]: 10 to 30 nM | Dmax [4]: > 75%
